Entries after “also recorded” stand apart in the source; their conditions may differ.
Experiments:
[1] = test system: DIAMOND™ mice; type: in vivo; settings: 150 mg/kg oral gavage; arm terminated early
Protocol: 8 mice gavaged with Curcumin at a dose of 150 mg/kg.
8 mice dosed from week 8 (t=8) until week 20 (t=20) on the Western Diet Sugar Water with once (1×) daily oral gavage with curcumin 150 mg/kg.

[2] = test system: DIAMOND™ mice; assay: Gut permeability by serum dextran competitive ELISA after 4 kDa dextran gavage, WDSW-fed DIAMOND mice (Example 1); type: in vivo, mouse; settings: for Western Diet-induced GP (conclusion): Example 1 conclusion
Protocol: Pioglitazone was dosed at 30 mg/kg for the entire 12 weeks. Gut permeability (GP) was assessed twice at 12 weeks and 20 weeks by measuring dextran absorption into the bloodstream using a competitive enzyme-linked immunosorbent assay (ELISA) with 20 μL of serum collected by tail nick. Mice were gavaged with 4 kDa dextran at 600 mg/kg; the more permeable the gut, the more dextran is detected in serum. Results between dose groups were compared using Student's 2-tailed t-test, and pair-wise analysis was performed on serial measurements from week-12 to week-20 to assess drug impact on progression of GP over time. Serum and liver tissues were collected at necropsy, formalin-fixed, paraffin-embedded (FFPE) slides stained with H&E and Sirius Red, and liver pathology was assessed.

[3] = test system: DIAMOND™ mice; assay: Leaky gut assay / Dextran Assay - gut permeability at week 12 and week 20 (Example 2); type: in vivo, mouse; settings: for GP at week-12 compared to vehicle control (Arm-5): after 4 weeks of treatment; for GP at week-20 compared to vehicle control: after 12 weeks of treatment; for GP week-20 vs week-12: mice with data at both time points, paired t-test
Protocol: At 8 weeks on diet (t=8), mice were randomized into experimental groups based on the most recent body weight. […] Gut integrity/permeability was measured with the leaky gut assay on week 12 (one month on test article treatment) and on week 20 immediately prior to sacrifice. At each assay time point, between 0.2 ml and 0.4 ml of 4 kDa dextran solution (2 g/10 ml PBS solution, 0.2 g/mL) was orally gavaged to mice. After 4 hours, blood was collected from the tail vein and processed to serum. Dextran concentration in samples was measured by ELISA.
Gut integrity/permeability was measured with the leaky gut assay at two time points (12-week and 20-week) by competitive Dextran ELISA, 4 weeks after initial drug dosing with test article or vehicles, and immediately prior to sacrifice. Fresh fecal pellets were collected prior to each assay and placed into RNAlater and frozen (for possible future gut microbiome analysis).
• a. The leaky gut assay was performed at week 12 (one month on treatment) and immediately prior to sacrifice. • b. The procedure for the dextran was as follow: • i. 2 g of 4 kD dextran was weighed into a static free weigh dish. • ii. The dextran was mixed into a 10 ml of PBS solution. • iii. Between 0.2 ml and 0.4 ml of dextran solution was orally gavaged into mice. Each mouse staggered by 10 minutes to maintain blood dextran consistency during blood collection. • iv. 4 hours post gavage lidocaine applied to the tails of the mice in the order that they were gavaged. • v. The mice were lightly restrained in a mouse restraint device. • vi. After 5 minutes 70% alcohol was applied to a cotton swab and used to wipe off the lidocaine. • vii. Sterile scissors were used to perform a tail nick. • viii. 140 μl of whole blood was collected into a capillary tube. • ix. The capillary tubes were spun at 3,000 RPM for 8 minutes. • x. The capillary tubes were broken at the supernatant line and the serum was blown into an Eppendorf tube and snap frozen in liquid nitrogen.

[4] = test system: DIAMOND™ mice; assay: Liver histology scoring, H&E and Sirius Red (Example 2); type: in vivo, mouse
Protocol: Liver samples were fixed in 10% neutral buffered formalin for 36-48 hours depending on the size of the sample before being placed into 70% alcohol. The samples were then processed into FFPE blocks. The FFPE blocks were sectioned and three (3) slides were cut per block and submitted for H&E and Sirius Red staining, and subsequent histology analysis. The samples' identity was blinded at the time of shipment for unbiased scoring.
Slide evaluation and scoring include NAS component scoring (fibrosis, steatosis grade and percentage, inflammation, ballooning), NAS score, SAF activity score, Fibrosis NASH CRN Score, Perisinusoidal Fibrosis score, and NASH category score. A histopathology sub-report is to be prepared containing scores and representative photographic images from each group.

[5] = test system: DIAMOND™ mice; assay: Serum lipid profile, Alere Cholestech LDX (Example 2); type: in vivo, mouse; settings: serum at necropsy
Protocol: (§1) Lipid (total cholesterol, LDL, HDL, triglycerides, HDL calc.) and hepatic (ALB, AST, ALT, Alk, Phos, BUN, GGT, T Bil) panels were performed as described below. Due to natural variations in mice physiology extra serum might not be available to repeat testing.
40-50 microliters of thawed serum were placed into the sample well of an AL-10-991 test cassette, then the test cassette placed into the Alere Cholestech LDX blood lipid analyzer. The Alere Cholestech is FDA approved and CLIA waived for human use at POC and is used by numerous drug companies and CROs in preclinical studies because it only requires a small amount of blood. It may be used with whole blood, serum or plasma for humans, but mouse blood clots much faster and so whole blood in our experience has a higher failure rate. We therefore used serum.
Readouts were: • 1. Total cholesterol (T-chol) • 2. Triglycerides (TRIGS) (45 lower LOD) • 3. Glucose (standard range) • 4. HDL (100 upper LOD) • 5. LDL (calculated T-Chol—HDL)

[6] = test system: DIAMOND™ mice; assay: Liver weight at necropsy (Example 2); type: in vivo, mouse; settings: week 20
Protocol: Body weight and liver weight at time of euthanasia were recorded. Any abnormal gross anatomy signs on the body or liver would have been noted. […] The liver was processed into sections.

[7] = test system: DIAMOND™ mice; assay: Serum LFT / hepatic panel, Abaxis VS2 (Example 2); type: in vivo, mouse; settings: serum at necropsy
Protocol: as §1
Abaxis VS2 blood chemistry analyzers were used for measuring LFTs. This instrument is FDA approved for veterinary use, CLIA waived, and self-calibrating. It is the equivalent instrument to the Abaxis Piccolo instrument for human diagnostic testing. Phenobarbital test rotors (catalog #500-0049) were used which measure AST, ALT, ALP, GGT, ALB, and Total Bilirubin. The reactions are colorimetric, read automatically by the VS2 instrument, and results printed on a sticker which is attached to the necropsy specimen sheet and then entered into Excel. A minimum of 100 microliters of sample is needed for this test rotor, which may be either undiluted serum or diluted serum, in a ratio of 1:1 50 microliters of serum: 50 microliters of PBS without affecting accuracy of measurement of analytes. Significant hemolysis may render samples un-readable.

[8] = test system: DIAMOND™ mice; assay: Blood glucose and ketones from tail nick (Example 2); type: in vivo, mouse; settings: at necropsy
Protocol: Following completion of the dosing period on t=20, the mice were placed into a clean cage and fasted for six (6) hours prior to euthanasia. Animals were euthanized by exposing them to carbon dioxide as an anesthetic followed by cardiac puncture for exsanguination. Cervical dislocation was performed as a secondary means of euthanasia. A volume of 3-5 μl of whole blood were collected from a tail nick premortem and used for glucose and ketone testing. A second volume of 300-500 μl of blood collected at euthanasia were processed to serum, aliquoted into small vials and flash frozen in liquid nitrogen for further tests including liver function and lipid tests as per study protocol. Remaining serum was stored frozen for further possible testing.
• a. Immediately prior to euthanasia a tail nick was performed. Whole blood was used to measure ketones and glucose. • b. Euthanasia—The mice were placed into a clean cage and fasted for 6 hours prior to euthanasia. Blood collection took place during euthanasia via cardiac puncture. The blood was collected into micro-serum separator tubes and processed to serum by centrifugation under 4 degrees Celsius for 15 minutes at 5,000 RMP, aliquoted in 100 μl aliquots, and serum flash frozen. Serum samples were stored frozen at −80° C. until use. […]

[9] = test system: Staphylococcus, Streptococcus, Enterococcus, and Enterobacteriaceae; settings: species of Staphylococcus; cited from earlier work
[10] = Results Analysis 2, Week 12, after 4 weeks of treatment
[11] = Results Analysis 2, Week 20, after 12 weeks of treatment
[12] = Results Analysis 1, pair-wise analysis
[13] = end of study, listed as Vitamin-E

Structure (SMILES) | Western Diet-induced GP (conclusion) [2] | mean serum dextran concentration [2, 10] | fold reduction in mean serum dextran concentration compared with vehicle ([2]; Results Analysis 2, Week 20) | serum dextran concentration (significance) ([2]; Results Analysis 2, Week 20) | mean serum dextran concentration [2, 11] | GP at week-12 compared to vehicle control (Arm-5) [3] | GP at week-20 compared to vehicle control [3] | GP week-20 vs week-12 [3] | prevalence of NASH (disease category) ([4]; end of study) | triglycerides vs vehicle control (Arm-5) [5] | liver weight vs Vehicle Control (Arm-5) [6] | BUN vs Vehicle control groups (Arm-5 and Arm-10) [7] | Ketones blood level vs vehicle control (Arm-5) [8] | other results
COc1cc(/C=C/C(=O)CC(=O)/C=C/c2ccc(O)c(OC)c2)ccc1O [Curcumin] | – | – | – | – | – | – | – | – | – | – | – | – | – | mortality [1]: excess mortality
C[N@+]1(CC2CC2)CC[C@]23c4c5ccc(O)c4O[C@H]2C(=O)CC[C@@]3(O)[C@H]1C5.[Br-] [MNTX, (R)-N-(cyclopropylmethyl) noroxymorphone methobromide] | dramatically improved | 91 µg/mL | 2.9 fold | significant reduction | 74.7 µg/mL | significantly lower GP | persists at week-20; also recorded: significantly lower GP | maintained | 38% | no significant effect | significantly lower liver weight | – | – | fold reduction of serum dextran compared to the VC group ([2]; Results Analysis 1, 12 week timepoint): 2.7 fold; serum dextran concentration ([2]; Results Analysis 1, 12 week timepoint, 4 weeks of treatment): 90.9 µg/mL; average serum dextran concentration, fold lower than the VC group ([2]; Results Analysis 1, 20 week timepoint, 12 weeks of treatment): 2 fold; fold reduction in mean serum dextran concentration compared with vehicle ([2]; Results Analysis 2, Week 12): 1.8 fold; serum dextran concentration relative to vehicle (significance) ([2]; Results Analysis 2, Week 12): significant reduction
CCc1ccc(CCOc2ccc(CC3SC(=O)NC3=O)cc2)nc1 (centres unmarked) [Pioglitazone] | – | 121 µg/mL | 3.0 fold | – | 71.8 µg/mL | – | – | – | – | – | – | significantly increased | – | steatosis-only (disease category) ([4]; end of treatment): 100%
CO[C@H]1/C=C/O[C@@]2(C)Oc3c(C)c(O)c4c(O)c(c5c(nc6cc(C)ccn65)c4c3C2=O)NC(=O)/C(C)=C\C=C\[C@H](C)[C@H](O)[C@@H](C)[C@@H](O)[C@@H](C)[C@H](OC(C)=O)[C@@H]1C [Rifaximin] | dramatically improved | 151 µg/mL | – | significant reduction | 81.2 µg/mL | no changes | significantly lower GP | borderline significant | – | no effect | did not reduce liver weight | significantly increased | slightly decreased; also recorded: decreased | serum dextran average at 20 weeks [2, 12]: 85.9 µg/mL; serum dextran, 12-week average [2, 12]: 154.0 µg/mL; improvement of leaky gut in the 8 weeks between first and second measurement ([2]; Results Analysis 1, week 12 to week 20): 45%; improvement in leaky gut during the 8 weeks between assessments ([2]; Results Analysis 2, pair-wise, Week 12 to Week 20): 46.2%; Liver steatosis % vs control Arm-5 ([4]; end of study): increased; also recorded: slight increase in steatosis; triglycerides vs vehicle control (Arm-5) ([5]; listed as Arm-3): no significant effect; in vitro antibacterial activity [9]: active
Cc1c(C)c2c(c(C)c1O)CC[C@@](C)(CCC[C@H](C)CCC[C@H](C)CCCC(C)C)O2 [Vitamin E, a-tocopherol] | – | – | – | – | – | no effect | no effect | Trending upward | 38% | no effect | lower | – | moved ketone levels up | ALT vs control vehicles [7]: significantly increased; AST vs control vehicles [7]: significantly increased; Albumin vs vehicle control [7]: lower albumin; Albumin vs vehicle control ([7]; listed as Vitamin-E): decreased; GP week-20 vs week-12 ([3]; listed as Vit. E): trends toward an increase in GP; Lobular inflammation vs control Arm-5 ([4]; end of study): increase; NAFLD Activity Score (NAS) vs control Arm-5 ([4]; end of study): slight increase; Steatosis, Activity and Fibrosis (SAF) score vs control Arm-5 ([4]; end of study): slight increase; Lobular inflammation vs control Arm-5 [4, 13]: increased; NAFLD Activity Score (NAS) vs control Arm-5 [4, 13]: increased; Steatosis, Activity and Fibrosis (SAF) score vs control Arm-5 [4, 13]: increased; triglycerides vs vehicle control (Arm-5) ([5]; listed as Arm-9): no significant effect

From patent publication US20220175764A1 (priority 2019, published 2022)
